± gives the expanded uncertainty stated by the source.
Conditions: Liquid, Closed cell (Static) method

Structure (SMILES) | vapor or sublimation pressure (283.15 K) [kPa] | vapor or sublimation pressure (293.15 K) [kPa] | vapor or sublimation pressure (303.15 K) [kPa] | vapor or sublimation pressure (313.15 K) [kPa] | vapor or sublimation pressure (323.15 K) [kPa]
FCC(F)(F)F [1,1,1,2-tetrafluoroethane] | 415.5 ± 1.2 | 572.4 ± 1.3 | 768.9 ± 1.5 | 1015.5 ± 1.8 | 1317.2 ± 2.1
C=C(F)C(F)(F)F [2,3,3,3-tetrafluoro-1-propene] | 437.9 ± 1.2 | 591.5 ± 1.3 | 782.9 ± 1.5 | 1018.2 ± 1.8 | 1302.4 ± 2.1
CC(C)C [2-methylpropane] | 220.9 ± 1.1 | 302.7 ± 1.1 | 404.4 ± 1.2 | 531.3 ± 1.3 | 684.2 ± 1.4

From the NIST ThermoML archive (doi:10.1016/j.fluid.2016.01.028)
